Measurements taken from patent publication US20030086923A1, “Method for the prevention and/or treatment of atherosclerosis” (priority 1999, published 2003).
pIC50, pKi: −log10 of the molar value.

Assays:
THP-1 macrophages = assay: Stimulation of cholesterol efflux from cultured THP-1 macrophages; format: cell-based, human; details: 24 hours, 10 μg/ml apoA-I acceptor, mean±SEM, DMSO control 9.9 ± 0.5
Description: Stimulation of Cholesterol Efflux from Cultured Cells
Patients with Tangier disease have mutations in the ABC1 gene and have very low HDL levels. Cultured cells from these patients are defective in cholesterol efflux (Francis et al. (1995) J. Clin. Invest. 96:78-87). Therefore, induction of ABC1 mRNA should lead to increased cholesterol efflux and increased HDL levels (Francis et al. (1999) Clinica Chimica Acta 286:219-230). TIIP-1 cells were used to determine whether induction of ABC1 mRNA by Compound 1 would increase cholesterol efflux. Specifically, cultured human THP-1 cells were stimulated to differentiate into macrophages by incubation with 100 nM tetradecanoyl phorbol acetate for three days, as described above. After differentiation, the TUP-1 macrophages were labeled with ^3H-cholesterol by incubation for 24 hours with 10 μCi/ml ^3H-cholesterol in Complete RPMI media containing 0.1% lipid-free bovine serum albumin (BSA) plus 100 nM tetradecanoyl phorbol acetate. After labeling, the cells were incubated for 24 hours in Complete RPMI media with 0.1% lipid-free bovine serum albumin (BSA) to allow for equilibration of cellular cholesterol pools. Cholesterol efflux was then measured over the following 24 hours by incubating the cells in Complete RPMI media containing 10 μg/ml of apoA-I as cholesterol acceptor, and either Compound 1 or DMSO as control.

[1] = molecular target: T1, human GST-LXRβ ligand binding domain receptor (Homo sapiens, UniProt P55055); assay: Radioligand competition binding scintillation proximity assay, LXRβ
T1 construct: human LXRβ (amino acids 149-455) were subcloned into the pGEX-KT expression vector; made in house; host or cells: E. coli (pGEX-KT vector)
T1 sequence (P55055 149-455): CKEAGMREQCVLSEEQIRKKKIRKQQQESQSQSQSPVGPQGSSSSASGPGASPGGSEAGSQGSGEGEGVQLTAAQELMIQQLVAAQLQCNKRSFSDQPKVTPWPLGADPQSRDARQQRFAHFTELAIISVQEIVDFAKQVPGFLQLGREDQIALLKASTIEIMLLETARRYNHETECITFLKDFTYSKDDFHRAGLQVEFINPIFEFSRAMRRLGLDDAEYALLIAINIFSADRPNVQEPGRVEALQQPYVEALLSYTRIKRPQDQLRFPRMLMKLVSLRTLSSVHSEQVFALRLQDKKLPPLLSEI
Description: (§1) Radioligand Competition Binding Scintillation Proximity Assays:
(§2) Preparation of Recombinant Human LXRα and LXRβ:
(§3) Human LXRα and LXRβ were expressed as GST-fusion proteins in E. coli. The ligand binding domain cDNAs for human LXRα (amino acids 164-447) and human LXRβ (amino acids 149-455) were subcloned into the pGEX-KT expression vector (Pharmacia). E. coli containing the respective plasmids were propagated, induced, and harvested by centrifugation. The resuspended pellet was broken in a French press and debris was removed by centrifugation. Recombinant human LXR receptors were purified by affinity chromatography on glutathione sepharose and receptor was eluted with glutathione. Glycerol was added to a final concentration of 50% to stabilize the receptor and aliquots were stored at −80° C.
(§4) After incubation for ˜16 h at 15° C. with shaking, the assay plates were counted in a Packard Topcount.

human GST-LXRα receptor = molecular target: T2, human GST-LXRα receptor (Homo sapiens, UniProt Q13133); assay: Radioligand competition binding scintillation proximity assay, LXRα
T2 construct: made in house; host or cells: E. coli (pGEX-KT vector)
T2 sequence (Q13133 164-447): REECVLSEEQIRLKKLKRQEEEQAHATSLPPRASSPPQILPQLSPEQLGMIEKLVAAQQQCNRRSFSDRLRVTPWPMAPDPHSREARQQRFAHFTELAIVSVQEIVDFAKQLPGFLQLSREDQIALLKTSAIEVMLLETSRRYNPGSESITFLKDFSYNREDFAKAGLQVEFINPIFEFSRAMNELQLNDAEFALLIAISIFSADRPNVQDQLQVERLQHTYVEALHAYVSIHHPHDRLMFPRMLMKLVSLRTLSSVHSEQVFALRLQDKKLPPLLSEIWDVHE
Description: as §1, §2, §3, §4

human PPARγ = molecular target: T3, human PPARγ (Homo sapiens, UniProt P37231); assay: PPARγ competition binding assay
T3 sequence (P37231 1-505): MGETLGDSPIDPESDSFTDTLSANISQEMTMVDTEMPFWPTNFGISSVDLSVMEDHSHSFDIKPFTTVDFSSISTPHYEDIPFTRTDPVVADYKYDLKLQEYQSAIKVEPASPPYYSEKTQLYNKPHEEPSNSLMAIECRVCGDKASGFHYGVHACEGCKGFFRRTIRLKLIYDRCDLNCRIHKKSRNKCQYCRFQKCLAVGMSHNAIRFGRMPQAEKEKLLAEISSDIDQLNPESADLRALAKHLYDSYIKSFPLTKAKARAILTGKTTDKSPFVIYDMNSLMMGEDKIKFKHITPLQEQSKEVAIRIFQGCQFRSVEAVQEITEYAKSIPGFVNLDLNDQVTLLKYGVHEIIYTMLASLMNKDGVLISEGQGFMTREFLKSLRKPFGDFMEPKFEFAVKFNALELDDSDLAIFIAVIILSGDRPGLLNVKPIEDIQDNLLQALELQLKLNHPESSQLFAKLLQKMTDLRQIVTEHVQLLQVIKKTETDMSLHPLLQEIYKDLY
Description: The term ligand throughout this application should be understood to include an agonist, partial agonist or antagonist of LXR. The ligand may be selective for LXRα or LXRβ, or it may have mixed binding affinity for both LXRα and LXRβ. Particularly, compounds within the scope of this invention include those which have greater selectivity as determined by binding affinity for LXRα and/or LXRβ receptors than they have for each of the PPARα, γ and δ receptors.

[2] = tested on: cholesterol-loaded THP-1 macrophages; assay: Stimulation of cholesterol efflux from cholesterol-loaded THP-1 macrophages; format: cell-based, human; details: 1 μM, 24 hours, mean±SEM
Description: Stimulation of Cholesterol Efflux from Cholesterol-Loaded Cells
To determine if LXR agonists could increase cholesterol efflux in cells that were loaded with excess cholesterol, THP-1 cells were loaded with cholesterol using acetylated LDL prior to the assay of cholesterol efflux Specifically, cultured human THP-1 cells were stimulated to differentiate into macrophages as described above. After differentiation, the THP-1 macrophages were loaded with cholesterol and simultaneously labeled with ^3H-cholesterol using acetylated LDL containing ^3H-cholesterol essentially as described by Kritharides et al. (1998) Arterioscler Thromb Vasc Biol. 18:1589-1599. After 24 hours of incubation with 100 μg/ml of acetylated LDL labelled with ^3H-cholesterol, the cells were incubated in Complete RPMI medium containing 0.1% lipid-free BSA for 24 hours to allow for equilibration of cellular cholesterol pools. Cholesterol efflux was then measured over the following 24 hours by incubating the cells in Complete RPMI medium with either apoA-I or HDL as cholesterol acceptor, and with either 1 μM Compound 1 or DMSO as control.

- pIC50 [1]: 7.40
- pKi ([1]; read-out: LXRβ calculated Ki): ~7.85
- pIC50 (human GST-LXRα receptor): 7.10
- pKi (human GST-LXRα receptor; read-out: LXRα calculated Ki): ~7.52
- pIC50 (human PPARγ): < 5.00
SMILES: CC(=O)Oc1ccc2c(c1)[C@@]1(C)CCC[C@](C)(C(=O)OC(=O)[C@@]3(C)CCC[C@]4(C)c5cc(OC(C)=O)ccc5CC[C@@H]34)[C@@H]1CC2 [Compound 1]
- Cholesterol efflux (% of cell contents) (THP-1 macrophages; 0.02 μM): 14.6 ± 0.5 % of cell contents
- Cholesterol efflux (% of cell contents) (THP-1 macrophages; 2.5 μM): 17.1 ± 0.6 % of cell contents
- Cholesterol efflux (% of cell contents) ([2]; acceptor 10 μg/ml apoA-I, DMSO control 6.4 ± 0.3): 10.3 ± 0.4 % of cell contents
- Cholesterol efflux (% of cell contents) ([2]; acceptor 25 μg/ml HDL, DMSO control 14.9 ± 0.5): 18.6 ± 0.7 % of cell contents
